In US8119640B2, “Hedgehog pathway antagonists methods of use” (The Board of Trustees of the Leland Stanford Junior …, priority 2008, dated 2012):
“Also recorded” adds a separate entry of the source.

Assays:
[1] = test system: FLAG-Gli1; test: Analysis of Gli1 stability; format: cell-based, mouse; details: Shh-LIGHT2 FLAG-Gli1 cells, 24 h
Protocol: Analysis of Gli1 stability. […] The cells were maintained under these conditions for 24 h. The cells were subsequently solubilized in lysis buffer (100 μL/well; 50 mM Tris-HCl, pH 7.4, 1% Triton X-100, 250 mM NaCl, 2 mM EDTA, 20 mM NaF, 2 mM Na3VO4, 2 mM 2-mercaptoethanol, and EDTA-free protease inhibitor cocktail (Roche)). This suspension was transferred to a 1.5-mL centrifuge tube and incubated on ice for 30 min, with vortexing every 5 min. The cell lysates were then centrifuged at 20,000×g at 4° C. for 20 min. Supernatants were removed, and a BCA assay was performed to quantify protein levels. 15 μg […] of protein from each sample was solubilized in 1×SDS-PAGE sample buffer (50 mM Tris-HCl, pH 6.8 containing 10% glycerol, 2% SDS, 50 mM DTT, 200 mM 2-mercaptoethanol, and 0.001% bromophenol blue) and boiled for 5 min. The samples were then resolved on a 4-12% Bis-Tris Criterion XT gel and transferred to a PVDF membrane. The membrane was dehydrated with methanol, and then probed with mouse anti-FLAG M2 antibody (Sigma; 1:1,000 dilution in blocking buffer (PBS containing 3% non-fat dried milk and 0.01% Tween 20)) for 90 min. The blots were washed 4×5 min in PBS containing 0.01% Tween 20 and then probed with horseradish peroxidase-conjugated sheep anti-mouse IgG antibody (GE Healthcare; 1:10,000 dilution in blocking buffer) for 1 h. The membranes were washed again 4×3 min in PBS, and immunoreactive bands were detected with a SuperSignal West Dura kit and a ChemiDoc XRS system. To probe for loading controls, the blots were rinsed with PBS, incubated for 1 min in methanol, washed 3×5 min in PBS, and then re-blocked for 1 h in PBS containing 5% non-fat dried milk and 0.1% Tween 20. […] Protein bands were quantified using Quantity One software (Bio-Rad). FLAG-Gli1 and importin β1 bands were normalized to the average band intensities for each experiment. The ratio of these two values was then used to determine the relative amount of FLAG-Gli1 per condition. Results from three independent experiments were then averaged, and normalized to FLAG-Gli1 levels in DMSO-treated cells.

[2] = test system: FLAG-Gli2; test: Immunostaining of FLAG-Gli2 line: ciliary FLAG-Gli2 and primary cilia; format: cell-based, mouse; details: for Ciliary levels of FLAG-Gli2: Shh-EGFP FLAG-Gli2 cells, immunofluorescence
Protocol: Immunostaining of FLAG-Gli lines and NIH-3T3 cells. The FLAG-Gli1-expressing or FLAG-Gli2-expressing clonal cell lines were seeded into 24-well plates (80,000 cells/well) containing poly-D-lysine-coated 12-mm glass coverslips. […] The cells were subsequently fixed in 4% paraformaldehyde for 10 min at room temperature followed by treatment with methanol at −20° C. for 2 to 5 min. The cells were washed with PBS, permeabilized with 0.2% Triton X-100 for 2 to 5 min, and then blocked with PBS containing 2% BSA for 3 h at room temperature. The coverslips were then treated with mouse anti-FLAG M2 antibody (Sigma; 1:1,000 dilution in blocking buffer) and rabbit anti-Arl13b (10) (1:1,000 dilution in blocking buffer) for 3 h at room temperature and washed 3×5 min with PBS. The coverslips were incubated next with Alexa Fluor 594-conjugated goat anti-mouse IgG and Alexa Fluor 488-conjugated donkey anti-rabbit IgG antibodies (Invitrogen; 1:1,000 dilutions in blocking buffer) for 2 h at room temperature. After washes with PBS and a 5-min incubation with 4,6-diamidino-2-phenylindole (DAPI), the samples were mounted using Prolong Gold (Invitrogen) and imaged with an upright Leica DM4500B compound microscope. In order to quantify ciliary Gli2 localization, a circular region with diameter equal to the average width of cilia as determined by the anti-Arl13b antibody staining was manually placed at the distal end of each cilium. Regions were transferred from the anti-Arl13b antibody image to the anti-FLAG antibody image, and FLAG staining intensities within those areas were assessed. Between 40 and 80 cilia were analyzed for each condition. To normalize ciliary FLAG-Gli2 levels with respect to compound-dependent changes in total FLAG-Gli2 levels, the absolute average intensities for each condition were divided by the fold change in FLAG-Gli2 levels, as determined by the quantitative immunoblotting described above. Quantification of ciliary FLAG-Gli1 levels was performed in an analogous manner. Since HPI-4 perturbs primary cilia formation, only Arl13b-positive structures that could be clearly identified as cilia were used for Gli protein quanitification in HPI-4-treated cells. To assess cytoplasmic microtubule structures in cells treated with the HPIs, NIH-3T3 cells were cultured on poly-D-lysine-coated 12-mm glass coverslip, treated with the HPIs, and fixed with 4% paraformalehyde as described above. In place of the methanol treatment, the cells were permeabilitized with PBS containing 0.1% Triton X-100 for 1 min. Washing, blocking, and antibody incubation steps were then conducted as before, using mouse anti-<-tubulin (DM1-A, Sigma, 1:2,000 in blocking buffer). Secondary antibody treatments, DAPI staining, mounting, and imaging were then conducted as described above.

Structure (SMILES)	FLAG-Gli1 stability/levels (immunoblotting) [1]	Primary cilia formation ([2]; 30 μM HPI-4)	Ciliary levels of FLAG-Gli2 [2]
COCCOC(=O)C1=C(C)NC2=C(C(=O)CC(c3ccccc3OC)C2)C1c1cccc(O)c1 (mixture of isomers) [Compound 8, 4-(3-Hydroxy-phenyl)-7-(2-methoxy-phenyl)-2-methyl-5-oxo-1,4,5,6,7,8-hexahydro-quinoline-3-carboxylic acid 2-methoxy-ethyl ester]	increased		
N#CC(C(=O)c1ccc(Cl)cc1Cl)=C1NC(=O)c2ccccc2N1 [Compound 18]	decreased	truncated primary cilia; also recorded: inhibits primary cilia formation	increased ciliary levels of FLAG-Gli2
OCCNc1nc(N2CCN(c3ccccc3)CC2)nc2ccccc12 [Compound 11]	neither HPI-2 or HPI-3 had any significant effect on FLAG-Gli1 levels		increased ciliary levels of FLAG-Gli2
COc1ccc(OC)c2c1cc1n2CC(C)(C(=O)NC2CCCCCCC2)N(CCN(C)C)C1=O (centres unmarked) [Compound 17]	neither HPI-2 or HPI-3 had any significant effect on FLAG-Gli1 levels		increased ciliary levels of FLAG-Gli2
